Experimental data as given in patent US5523406A, “2-substituted tertiary carbinol derivatives of 1,5-iminosugars” (G. D. Searle & Co., priority 1994, dated 1996).
In brackets after ≈: the same amount, converted by molar mass. Read-outs that look alike come from different tables or passages of the source.

Legend:
HIV-1, strain HTVL-IIIB = assay: Inhibition of HIV-1 cytopathogenic effect in Leu-3a-positive CEM cells, MTT endpoint (Method B); assay type: cell-based; details: Human immunodeficiency virus 1, IIIB, CCRF-CEM, 216 h, read-out: ID50 (the source's name)
Procedure: (§1) These tests involved plating of susceptible human host cells which are syncytium-sensitive with and without virus in microculture plates, adding various concentrations of the test compound, incubating the plates for 9 days (during which time infected, non-drug treated control cells are largely or totally destroyed by the virus), and then determining the number of remaining viable cells using a colorimetric endpoint.
Various illustrative compounds synthesized above were tested for inhibition of visna virus in vitro in a plaque reduction assay (Method A) or for inhibition of HIV-1 in a test which measured reduction of cytopathogenic effect in virus-infected synctium-sensitive Leu-3a-positive CEM cells grown in tissue culture (Method B) as follows:
(§2) Tissue culture plates were incubated at 37° C. in a humidified, 5% CO2 atmosphere and observed microscopically for toxicity and/or cytopathogenic effect (CPE). At 1 hour prior to infection, each test article was prepared from the frozen stock, and a 20 μl volume of each dilution (prepared as a 10× concentration) was added to the appropriate wells of both infected and uninfected cells.
(§3) On the 9th day post-infection, the cells in each well were resuspended and a 100 μl sample of each cell suspension was removed for use in an MTT assay. A 20 μl volume of a 5 mg/ml solution of 3-(4,5-dimethylthiazol-2-yl)-2,5-diphenyltetrazolium bromide (MTT) was added to each 100 μl cell suspension, and the cells were incubated at 37° C. in 5% CO2 for 4 hours. […] A 100 μl volume of a solution of 10% sodium dodecyl sulfate in 0.01N hydrochloric acid was added to each sample, and the samples were incubated overnight. The absorbance at 590 nm was determined for each sample using a Molecular Devices Vmax microplate reader. This assay detects drug-induced suppression of viral CPE, as well as drug cytotoxicity, by measuring the generation of MTT-formazan by surviving cells.
(§4) Assays were done in 96-well tissue culture plates. CEM cells were treated with polybrene at a concentration of 2 μg/ml, and an 80 μl volume of cells (1×10^4 cells) was dispensed into each well. A 100 μl volume of each test article dilution (prepared as a 2 ×concentration) was added to 5 wells of cells, and the cells were incubated at 37° C. for 1 hour. A frozen culture of HIV-1, strain HTVL-IIIB, was diluted in culture medium to a concentration of 5×10^4 TCID50 per ml, and a 20 μl volume (containing 10^3 TCID50 of virus) was added to 3 of the wells for each test article concentration. […] A 20 μl volume of normal culture medium was added to the remaining wells to allow evaluation of cytotoxicity. Each plate contained 6 wells of untreated, uninfected, cell control samples and 6 wells of untreated, infected, virus control samples.

in vitro = assay type: cell-based; details: human, cem cells
Procedure: as §1, §2, §3, §4

[1] = Table I, Anti HIV Activity, CEM cells, 9 days

SMILES	IC50 (HIV-1, strain HTVL-IIIB; Example 38, inhibition of HIV) [µg/mL]	cytotoxicity at 216 h (in vitro) [%]	IC50 (HIV-1, strain HTVL-IIIB; [1]) [µg/mL]	CC50 at 216 h (in vitro) [µg/mL]
C[C@]1(O)CN[C@@H]2CO[C@@H](c3ccccc3)O[C@H]2[C@@H]1O [XIV, 1,5-dideoxy-1,5-imino-2-C-methyl-4,6-O-(R-phenylmethylene)TD-glucitol]	513 (≈ 1930 µM)	–	–	–
CCCCN1C[C@](C)(O)[C@@H](O)[C@H](O)[C@H]1CO [XVIA, 1,5-Butylimino-1,5-dideoxy-2-C-methyl-D-glucitol]	–	20	237 (≈ 1020 µM)	–
CC1(O)CN(CCCc2ccccc2)C(CO)C(O)C1O [XVIB, 1,5-(3-phenylpropylimino)-1,5-dideoxy-2-C-methyl-D-glucitol]	–	40	492 (≈ 1670 µM)	–
CCC(CC)CN1C[C@](C)(O)[C@@H](O)[C@H](O)[C@H]1CO [XVIC, 1,5-(2-ethylbutylimino) -1,5-dideoxy-2-C-methyl-D-glucitol]	–	–	6 (≈ 23 µM)	349 (≈ 1340 µM)
CCCCN1C[C@H](O)[C@@H](O)[C@H](O)[C@H]1CO [n-Bu, N-butyl DNJ, reference compound]	–	–	34 (≈ 155 µM)	> 500
